Patent US12428413B2 (CHDI Foundation, Inc., priority 2019, dated 2025)

What follows are molecules tested on cellular ROCK activity (cofilin phosphorylation at Ser3) in A7r5 rat smooth muscle cells (assay: Cellular ROCK activity: cofilin (Ser3) phosphorylation, In-Cell Western assay). Details: Rattus norvegicus, A7R5, 1 h, 1 hour compound incubation, phospho-cofilin (Ser3), read-out: CELL_IC50.
Type: cell-based
Experimental: The potency of Rho-associated protein kinase (ROCK) inhibitors was quantified by measuring cofilin phosphorylation levels at Serine 3 (Ser3) as a measure of cellular ROCK activity by In-Cell Western assay. […] The assay plate was imaged and quantified on the Odyssey imager (LICOR Biosciences).
ROCK inhibitor compound plate preparation. […] Stock compounds and control are added directly to ECHO plate (Labcyte) by Janus.
A7r5 cell culture and plating. A7r5 cells were cultured according to standard cell culture protocols in A7r5 growth media (DMEM with Glutamax and 10% FBS). […] 45 μl of re-suspended A7r5 cells were plated at 3000 cells/well in a sterile, μclear, black, F-bottom, 384-well microplate (Greiner bio-one). Seeded cells allowed to settle in wells on the bench for 1 hour before incubation at 37° C., 5% CO2 overnight.
Assay reagent and antibody preparations. Wash buffer was prepared by addition of Tween-20 to Dulbecco's Phosphate Buffered Saline (DPBS) (1×) without calcium and magnesium to make 1% Tween-20 as final concentration. Blocking buffer was prepared by addition of TritonX-100 to SeaBlock buffer (ThermoFisher) to make 0.3% TritonX-100 as final concentration. […] Secondary antibody mix was prepared by diluting donkey anti-rabbit 800CW antibody (LICOR Biosciences) 1:1000 in SeaBlock buffer.
Assay procedure. Compound plate was diluted by addition of 19 μl/well compound dilution buffer (DMEM with Glutamax) using 125 μl 16-channel Matrix electronic pipette. 5 μl diluted compound was stamped from compound plate to assay plate containing A7r5 cells using Bravo (384-well head from Agilent) liquid handler and incubated at 37° C., 5% CO2 for 1 hour. Cells were fixed by addition of 5 μl 37% formaldehyde using 125 μl 16-channel Matrix electronic pipette and incubation for 20 min at room temperature. The assay plate was washed 5× with 60 μl/well wash buffer. […] Next, the assay plate was sealed, centrifuged at 1000 rpm for 5 seconds and incubated at 4° C. overnight on an orbital shaker at 300 rpm. […] The assay plate was centrifuged at 1000 rpm for 5 seconds and incubated on an orbital shaker at 300 rpm for 60 min at room temperature. Finally, assay plate was washed and wells left empty before measurement of 700 nm and 800 nm fluorescence intensities on Odyssey imager set at 4.0 mm focus offset.

Row | SMILES | IC50 [nM]
1 | C[C@@H]1CN(c2ccncc2F)CCN1C(=O)N[C@H](C)c1cccnc1 [Example 52, (R)-4-(3-Fluoropyridin-4-yl)-2-methyl-N—((R)-1-(pyridin-3-yl)ethyl)piperazine-1-carboxamide] | 234
2 | COc1cc(F)cc([C@@H](C)NC(=O)N2CCN(c3ccncc3F)C[C@H]2C)c1 [Example 51, (R)—N—((R)-1-(3-Fluoro-5-methoxyphenyl)ethyl)-4-(3-fluoropyridin-4-yl)-2-methylpiperazine-1-carboxamide] | 15.2
3 | COc1cccc([C@@H](C)NC(=O)N2CCN(c3ccnc(F)c3)CC2)c1 [Example 101] | 871
4 | C[C@@H]1CN(c2ccncc2F)CCN1C(=O)NCc1cccc2occc12 [Example 76, (R)—N-(Benzofuran-4-ylmethyl)-4-(3-fluoropyridin-4-yl)-2-methylpiperazine-1-carboxamide] | 86.1
5 | Cc1cnc2cccc([C@H](C)NC(=O)N3CCN(c4ccnc(F)c4)C[C@H]3C)n12 [Example 10, (R)-4-(2-Fluoropyridin-4-yl)-2-methyl-N—((S)-1-(3-methylimidazo[1,2-a]pyridin-5-yl)ethyl)piperazine-1-carboxamide] | ≥ 5000
6 | C[C@@H](NC(=O)N1CCN(c2ccnc(F)c2)CC1)c1cccc2occc12 [Example 104] | 830
7 | C[C@@H]1CN(c2ccncc2F)CCN1C(=O)N[C@H](C)c1ccccc1Br [Example 45, (R)—N—((R)-1-(2-Bromophenyl)ethyl)-4-(3-fluoropyridin-4-yl)-2-methylpiperazine-1-carboxamide] | 125
8 | C[C@@H]1CN(c2ccncc2F)CCN1C(=O)N[C@H](C)c1cccc2nccn12 [Example 58, (R)-4-(3-fluoropyridin-4-yl)-N—((R)-1-(imidazo[1,2-a]pyridin-5-yl)ethyl)-2-methylpiperazine-1-carboxamide] | 17.6
9 | Cc1nc2c([C@H](C)NC(=O)N3CCN(c4ccncc4F)C[C@H]3C)cccc2o1 [Example 70, (R)-4-(3-Fluoropyridin-4-yl)-2-methyl-N—((S)-1-(2-methylbenzo[d]oxazol-4-yl)ethyl)piperazine-1-carboxamide] | 3000
10 | C[C@@H](NC(=O)N1CCN(c2ccncc2F)CC1)c1ccc(F)cc1Cl [Example 21, (R)—N-(1-(2-Chloro-4-fluorophenyl)ethyl)-4-(3-fluoropyridin-4-yl)piperazine-1-carboxamide] | 1780
11 | C[C@@H]1CN(c2ccncc2F)CCN1C(=O)NCc1cccc2c1OCO2 [Example 75, (R)—N-(Benzo[d][1,3]dioxol-4-ylmethyl)-4-(3-fluoropyridin-4-yl)-2-methylpiperazine-1-carboxamide] | 150
12 | CC[C@@H]1CN(c2ccncc2F)CCN1C(=O)N[C@H](C)c1cccc(OC)c1 [Example 83, (R)-2-Ethyl-4-(3-fluoropyridin-4-yl)-N—((R)-1-(3-methoxyphenyl)ethyl)piperazine-1-carboxamide] | 31.4
13 | C[C@@H]1CN(c2ccncc2F)CCN1C(=O)N[C@H](C)c1cccc2ccn(C)c12 [Example 63, (R)-4-(3-Fluoropyridin-4-yl)-2-methyl-N—((R)-1-(1-methyl-1H-indol-7-yl)ethyl)piperazine-1-carboxamide] | 44.2
14 | C[C@@H]1CN(c2c(F)cncc2F)CCN1C(=O)N[C@H](C)c1cccc2c1CCO2 [Example 156] | 4.9
15 | O=C(NCc1cccc2occc12)N1CCN(c2ccncc2F)CC1 [Example 38, N-(Benzofuran-4-ylmethyl)-4-(3-fluoropyridin-4-yl)piperazine-1-carboxamide] | 761
16 | C[C@@H]1CN(c2ccnc(F)c2)CCN1C(=O)N[C@H](C)c1cccc(OC(F)F)c1 [Example 108] | 638
17 | C[C@@H](NC(=O)N1CCN(c2ccncc2F)CC1)c1cccc2ccn(C)c12 [Example 32, (R)-4-(3-fluoropyridin-4-yl)-N-(1-(1-methyl-1H-indol-7-yl)ethyl)piperazine-1-carboxamide] | 410

Row | SMILES | IC50 [nM]
18 | Cc1cc2c([C@@H](C)NC(=O)N3CCN(c4ccncc4F)C[C@H]3C)cccc2o1 [Example 60, (R)-4-(3-Fluoropyridin-4-yl)-2-methyl-N—((R)-1-(2-methylbenzofuran-4-yl)ethyl)piperazine-1-carboxamide] | 33.1
19 | C[C@@H](NC(=O)N1CCN(c2ccncc2F)[C@@H](C)C1)c1cccc2occc12 [Example 148] | 71.6
20 | C[C@@H]1CN(c2ccncc2F)CCN1C(=O)N[C@H](C)c1ccccc1Cl [Example 42, (R)—N—((R)-1-(2-Chlorophenyl)ethyl)-4-(3-fluoropyridin-4-yl)-2-methylpiperazine-1-carboxamide] | 73
21 | COc1cc(F)cc([C@@H](C)NC(=O)N2CCN(c3ccncc3F)CC2)c1 [Example 128] | 163
22 | C[C@H]1CN(C(=O)NCc2cccc(OC(F)F)c2)CCN1c1ccncc1F [Example 149] | 2740
23 | COc1cccc([C@@H](C)NC(=O)N2CCN(c3ccncc3F)C[C@H]2C)c1Cl [Example 135] | 1040
24 | C[C@@H]1CN(c2ccnc(F)c2)CCN1C(=O)N[C@H](C)c1ccccc1Cl [Example 109] | 1090
25 | C[C@@H]1CN(c2ccncc2F)CCN1C(=O)NCc1cccc2ncccc12 [Example 80, (R)-4-(3-Fluoropyridin-4-yl)-2-methyl-N-(quinolin-5-ylmethyl)piperazine-1-carboxamide] | 75.5
26 | C[C@@H](NC(=O)N1CCN(c2ccnc(F)c2)CC1)c1cccc2c1CCO2 [Example 102] | 198
27 | C[C@@H]1CN(c2ccncc2F)CCN1C(=O)N[C@H](C)c1cccc(F)c1Cl [Example 47, (R)—N—((R)-1-(2-Chloro-3-fluorophenyl)ethyl)-4-(3-fluoropyridin-4-yl)-2-methylpiperazine-1-carboxamide] | 131
28 | COc1cccc([C@@H](C)NC(=O)N2CCN(c3ccnc(F)c3)[C@@H](C)C2)c1 [Example 117] | 107
29 | C[C@@H]1CN(c2ccncc2F)CCN1C(=O)NCc1cccc2c1cnn2C [Example 79, (R)-4-(3-Fluoropyridin-4-yl)-2-methyl-N-((1-methyl-1H-indazol-4-yl)methyl)piperazine-1-carboxamide] | 2010
30 | Cc1cc2c([C@@H](C)NC(=O)N3CCN(c4ccnc(F)c4)C[C@H]3C)cccc2o1 [Example 4, (R)-4-(2-Fluoropyridin-4-yl)-2-methyl-N—((R)-1-(2-methylbenzofuran-4-yl)ethyl)piperazine-1-carboxamide] | 356
31 | Cc1nc2c([C@@H](C)NC(=O)N3CCN(c4ccncc4F)C[C@H]3C)cccc2o1 [Example 69, (R)-4-(3-Fluoropyridin-4-yl)-2-methyl-N—((R)-1-(2-methylbenzo[d]oxazol-4-yl)ethyl)piperazine-1-carboxamide] | 104
32 | COc1ccc(Cl)c([C@@H](C)NC(=O)N2CCN(c3ccncc3F)C[C@H]2C)c1 [Example 49, (R)—N—((R)-1-(2-Chloro-5-methoxyphenyl)ethyl)-4-(3-fluoropyridin-4-yl)-2-methylpiperazine-1-carboxamide] | 164
33 | C[C@H](NC(=O)N1CCN(c2ccncc2F)C[C@H]1C)c1cccc(F)c1Cl [Example 48, (R)—N—((S)-1-(2-chloro-3-fluorophenyl)ethyl)-4-(3-fluoropyridin-4-yl)-2-methylpiperazine-1-carboxamide] | 279
